Test results: publication PMC11026381, “Late-stage meta-C–H alkylation of pharmaceuticals to modulate biological properties and expedite molecular optimisation in a single step” (Nature Communications, 2024)
Values after ≈ are worked out from the molar mass of the structure shown.

Columns and labels:
[1] = Fraction unbound in human plasma (Prot. Bind.), equilibrium dialysis; type: in vitro ADME; conditions: 5 μM, dialysis at 37 °C for 18 hours
From the text: (§1) 5. Pharmaceutically relevant properties modulation
(§2) Product analogues 5e, 6a-6k obtained after late-stage meta-C–H alkylation of the pharmaceutically active compound Emapunil (4e) were subjected to a range of fundamental in vitro drug discovery assays. To prevent hydrolysis of ester groups present on these analogues during biological testing (in order to compare the clearance and metabolic stability between these drug derivatives), their corresponding free acids 5e’, 6a’-6k’ were synthesised (see page S54) and subjected to similar assays.
(§3) The experimental methods used for these physicochemical & drug metabolism and pharmacokinetics (DMPK) assays are described below 11. […]
Fraction unbound in human plasma (Prot. Bind.)
Equilibrium dialysis of compounds was used to assess the fraction unbound in human plasma. Stock solutions of compounds dissolved in DMSO were pooled into cassettes with up to 10 compounds in each cassette with a concentration of 1 mM. The pooled stock solutions were diluted in plasma to a compound concentration of 5 μM. Warfarin, propranolol and metoprolol were used as reference compounds in each run. The equilibrium dialysis device (RED, Thermo Fischer Scientific Inc., Rockford, USA) was used for dialysis against phosphate buffer (pH 7.4) at 37 °C for 18 hours. Calibration curves ranging from 0.001 to 7 μM were made using aliquots of the 7 μM spiked plasma pools that were transferred to a new plate followed by serial dilutions with blank plasma. Calibration curve samples and dialysis samples were precipitated with MeCN and after centrifugation, supernatants were removed and analysed using LC-MS/MS (Waters Xevo-TQS). Fraction unbound in the incubation was calculated as the concentration in the media buffer sample divided by the concentration in the plasma sample. The fraction unbound was reported as the median value.

[2] = Octanol/water partitioning (LogD), shake-flask method; type: physicochemical; conditions: n = 1; for LogD (octanol): 1-octanol / phosphate buffer pH 7.4, 20 °C; for logD: 1-octanol/phosphate buffer, pH 7.4, 1-octanol / phosphate buffer pH 7.4, 20 °C
From the text: as §1, §2, §3
Octanol/water partitioning (LogD)
Partitioning of compounds between 1 -octanol and phosphate buffer (0.1 M, pH 7.4) at 20 °C were determined using a modified version of the shake -flask method described by Leo et al13. Compounds were dissolved in a 96 -well plate, in 400 μL octanol, and 400 μL of buffer was added to each well. The plate was vigorously stirred for 5 min and then put on an Edmund Bühler shaker (Edmund Bühler GmbH, Hechingen, Germany) at 20 °C for 18 hours. Aliquots of 5 μL octanol were transferred and diluted with 495 μL MeCN/H2O (1:1) and, to avoid contamination of the buffer, the rest of the octanol was removed before 150 μL of buffer samples were transferred. Octanol and buffer samples were diluted with MeCN/H2O (1:1) in four steps of 10 times to yield octanol samples diluted 10 2 to 106 times and buffer samples diluted 1 to 104 times. LC-MS/MS (Waters Xevo-TQS) was used for analysis, and distribution coefficient at pH 7.4 (LogD7.4) was calculated from the integrated peak areas of the samples in the linear MS response range. LogD7.4 results were reported as median values. […]

[3] = Metabolic stability in male Han Wistar rat hepatocytes (CLint Rat Hep.); type: in vitro ADME; conditions: measured on the labelled compound itself, 1 μM, 10^6 viable cells/mL, 37 °C, n = 1
Protocol: Metabolic stability in male Han Wistar rat hepatocytes (CLint Rat Hep.) Hepatocyte metabolic stability was determined in accordance with the method described by Jacobson et al14. Cryopreserved hepatocytes at a concentration of 10 6 viable cells/mL were used. After thawing, hepatocytes were incubated for 10 min to warm to 37 °C, and compounds dissolved in MeCN were […]
incubation system was mixed and 20 μL aliquots were transferred at each time point to wells in a separate plate filled with 80 μL MeCN to stop the reaction. The quenching plate was then vortexed followed by centrifugation, and supernatants were analysed by LC-MS/MS (Waters Xevo-TQS). Peak areas were determined from extracted ion chromatograms, and the in vitro intrinsic clearance (in vitro CLint, in μL/min/10^6 cells) of parent compound was calculated from the slope in the regression analysis of the natural logarithm of parent concentration vs. time curve. Rat Hepatocytes (Cryosuspension, Male Wistar Hannover ) were harvested and s upplied by BioIVT (Product No. M00065, Lot No. DVO).
(§4) The modulation of pharmaceutically relevant properties on meta-C–H alkylation is shown below in Supplementary Fig. 68, with a selection of physicochemical and DMPK data including solubility , LogD, human plasma protein binding (Prot. Bind.) and intrinsic clearance (CLint) in human liver microsomes (HLM) or rat hepatocytes (Rat Hep.) .

[4] = Metabolic stability in human liver microsomes (CLint HLM); type: in vitro ADME; conditions: 1 mg/mL microsomal protein, 1 mM NADPH, 37 °C; for microsomal CLint at 1 μM: both sexes, human, liver microsomes, pH 7.4, measured on the labelled compound itself, n = 1, read-out: CLint HLM (intrinsic clearance in human liver microsomes); for CLint HLM (intrinsic clearance in human liver microsomes): measured on the labelled compound itself, 1 μM, n = 1
Protocol: Metabolic stability in human liver microsomes (CLint HLM)
Human liver microsomes were defrosted on ice and diluted to 1 mg/mL of microsomal protein in phosphate buffer (0.1 M, pH 7.4). Compounds at 1 μM were incubated with the liver microsome suspensions and 1 mM NADPH at 37 °C in a 96-well plate. At 0.5, 5, 10, 15, 20 and 30 min, aliquots of 30 μL were transferred to a 96-well plate containing 120 μL MeCN. This plate was centrifuged for 20 min and supernatant was removed and diluted with H2O (1:1) before analysis by LC-MS/MS (Waters Xevo-TQS). Peak areas were determined from extracted ion chromatograms, and the in vitro intrinsic clearance (in vitro CLint, in μL/min/mg microsomal protein) of parent compound was calculated from the slope in the regression analysis of the natural logarithm of parent concentration vs. time curve.
Human Liver Microsomes (InVitroCYPTM 150-Donor, Mixed Gender) were harvested and supplied by BioIVT (Product No. X008070, Lot No. QQY). […]
as §4

[5] = Thermodynamic solubility, shake-flask approach, phosphate buffer pH 7.4; type: physicochemical; conditions: pH 7.4, phosphate buffer 0.1 M, 20 °C, n = 1
From the text: as §1, §2
The experimental methods used for these physicochemical & drug metabolism and pharmacokinetics (DMPK) assays are described below 11.
This method measures the thermodynamic solubility of compounds based on a shake-flask approach12.
The nature of the solid state was unknown in these experiments and may be subject to variability. The compounds were dissolved in DMSO (30 μL, 10 mM) in glass vials, and were dried using a Genevac vacuum evaporator (Genevac Ltd, Ipswich, UK). When the samples were dry, 300 μL of phosphate buffer (0.1 M, pH 7.4) was added to the glass vials. The vials were put on an Edmund Bühler shaker (Edmund Bühler GmbH, Hechingen, Germany) at 20 °C for 18 hours. Samples were filtered through a Whatman GF/B 96-well filter and 20 μL of filtrated samples were transferred to separate wells in a plate containing 180 μL MeCN/H2O (1:1). Standards were prepared by diluting the 10 mM compound solutions with MeCN/H2O (1:1) to 200 μM. Three further dilution steps of 10 times were applied to both the samples and standards and they were all analy sed by LC-MS/MS (Waters Xevo-TQS). Solubility was determined using the integrated peak areas of the samples in the linear MS response range. […]

[6] = aqueous buffer, thermodynamic from solid

Row | SMILES | Prot. Bind. (% free), human plasma protein binding ([1]; n = 1) | Prot. Bind. (% free), human plasma protein binding ([1]; n = 1, listed as 6b’) | LogD (octanol) [2] | logD [2] | microsomal CLint at 1 μM [4] | CLint HLM (intrinsic clearance in human liver microsomes) [4] | solubility at 18 h [5, 6] | solubility at 18 h [5] | Prot. Bind. (% free), human plasma protein binding ([1]; n = 1, listed as 5e’) | Prot. Bind. (% free), human plasma protein binding ([1]; n = 1, listed as 6i’) | CLint Rat Hep. (intrinsic clearance in rat hepatocytes) [3] | CLint Rat Hep. (intrinsic clearance in rat hepatocytes) ([3]; listed as 6b’) | CLint Rat Hep. (intrinsic clearance in rat hepatocytes) ([3]; listed as 5e’) | CLint Rat Hep. (intrinsic clearance in rat hepatocytes) ([3]; listed as 6k’) | CLint Rat Hep. (intrinsic clearance in rat hepatocytes) ([3]; listed as 6i’) | CLint Rat Hep. (intrinsic clearance in rat hepatocytes) ([3]; listed as 6f’)
1 | CCOC(=O)C(C)(C)c1cccc(-c2ncc3c(n2)n(CC(=O)N(CC)Cc2ccccc2)c(=O)n3C)c1 [6b] | 0.8 % free | 3.0 % free | 0.5 | 4.2 | > 300 µL/min/mg | 11.1 µL/min/mg | 8 µM (≈ 4.12 µg/mL) | > 1000 µM |  |  | > 300 μL/min/10^6 | 10.3 μL/min/10^6 |  |  |  | 
2 | CCOC(=O)C1(c2cccc(-c3ncc4c(n3)n(CC(=O)N(CC)Cc3ccccc3)c(=O)n4C)c2)CCC1 [5e] | 0.4 % free |  | 0.7 | 4.4 | > 300 µL/min/mg | 5.5 µL/min/mg | 17 µM (≈ 8.97 µg/mL) | > 1000 µM | 2.0 % free |  | > 300 μL/min/10^6 |  | 15.9 μL/min/10^6 |  |  | 
3 | CCN(Cc1ccccc1)C(=O)Cn1c(=O)n(C)c2cnc(-c3cccc(C4(C(=O)OCc5ccccc5)CCN(C(=O)OC(C)(C)C)CC4)c3)nc21 [6k] | < 0.3 % free |  | > 3.2 |  | > 300 µL/min/mg | 24.1 µL/min/mg | 6 µM (≈ 4.31 µg/mL) | 806 µM (≈ 579 µg/mL) |  |  | 157 μL/min/10^6 |  |  | 18.0 μL/min/10^6 |  | 
4 | CCN(Cc1ccccc1)C(=O)Cn1c(=O)n(C)c2cnc(-c3cccc(C4(C(=O)OC)CCOC4)c3)nc21 (stereo not drawn) [6i] | 7.8 % free |  | -0.7 | 2.9 | > 300 µL/min/mg | < 3.0 µL/min/mg | 104 µM (≈ 55.1 µg/mL) | > 1000 µM |  | 5.9 % free | > 300 μL/min/10^6 |  |  |  | 12.9 μL/min/10^6 | 
5 | CCN(Cc1ccccc1)C(=O)Cn1c(=O)n(C)c2cnc(-c3ccccc3)nc21 [4e, emapunil, reference compound] | 0.8 % free |  |  | 3.2 | 218 µL/min/mg |  | 6 µM (≈ 2.41 µg/mL) |  |  |  | 164 μL/min/10^6 |  |  |  |  | 

More lines, main results first:

Row | Prot. Bind. (% free), human plasma protein binding ([1]; n = 1) | Prot. Bind. (% free), human plasma protein binding ([1]; n = 1, listed as 6b’) | LogD (octanol) [2] | logD [2] | microsomal CLint at 1 μM [4] | CLint HLM (intrinsic clearance in human liver microsomes) [4] | solubility at 18 h [5, 6] | solubility at 18 h [5] | Prot. Bind. (% free), human plasma protein binding ([1]; n = 1, listed as 5e’) | Prot. Bind. (% free), human plasma protein binding ([1]; n = 1, listed as 6i’) | SMILES | CLint Rat Hep. (intrinsic clearance in rat hepatocytes) [3] | CLint Rat Hep. (intrinsic clearance in rat hepatocytes) ([3]; listed as 6b’) | CLint Rat Hep. (intrinsic clearance in rat hepatocytes) ([3]; listed as 5e’) | CLint Rat Hep. (intrinsic clearance in rat hepatocytes) ([3]; listed as 6k’) | CLint Rat Hep. (intrinsic clearance in rat hepatocytes) ([3]; listed as 6i’) | CLint Rat Hep. (intrinsic clearance in rat hepatocytes) ([3]; listed as 6f’)
6 | 3.3 % free |  | -0.4 | 4.3 | > 300 µL/min/mg | 4.0 µL/min/mg | 12 µM (≈ 6.28 µg/mL) | 852 µM (≈ 446 µg/mL) |  |  | CCOC(=O)C(F)(F)c1cccc(-c2ncc3c(n2)n(CC(=O)N(CC)Cc2ccccc2)c(=O)n3C)c1 [6f] | > 300 μL/min/10^6 |  |  |  |  | 6.8 μL/min/10^6
7 | 0.5 % free |  |  | 3.9 | > 300 µL/min/mg |  | 50 µM (≈ 24 µg/mL) |  |  |  | CCN(Cc1ccccc1)C(=O)Cn1c(=O)n(C)c2cnc(-c3cccc(C4(C#N)CCC4)c3)nc21 [6d] | > 300 μL/min/10^6 |  |  |  |  | 
